From patent publication US7008905B2, “Method of combating undesired plant growth on cereals” (BASF Aktiengesellschaft, priority 2000, dated 2006)

Columns and labels:
Assay type in all cases: in vivo
HORVW = experiment: Pre-emergence test, selectivity; conditions: 3 weeks after treatment, rating 0-100 (100=death), Table 2
Description: (§1) The pre-emergence tests involve spraying a liquid formulation of the compound onto the soil in which the seeds of the plant species mentioned above has recently been sown.
(§2) The soil used in the tests is a prepared horticultural loam. The formulations used in the tests are prepared from solutions of the test compounds in acetone containing 0.4% by weight of an alkylphenol/ethylene oxide condensate available under the trade mark TRITON X-155.
(§3) These acetone solutions are diluted with water and the resulting formulations applied at dosage levels corresponding to 15 g, 30 g, 60 g, 120 g or 240 g of active material per hectare in a volume equivalent to 900 liters per hectare. In these tests untreated sown soil is used as control. The herbicidal effects of the test compounds are assessed visually three weeks after spraying the soil and are recorded an a 0 to 100 scale. A rating 0 indicates growth as untreated control, a rating 100 indicates death. An increase of 10 unit an the linear scale approximates to a 10% increase in the level of effect. The results of the assessment are set out in Tables 1 to 4.

[1] = tested on: Triticum aestivum variety “Monopol”; experiment: Pre-emergence test, selectivity; conditions: 3 weeks after treatment, rating 0-100 (100=death), Table 2
Description: as §1, §2, §3

[2] = tested on: Hordeum vulgare variety “Mammut”; experiment: Pre-emergence test, selectivity; conditions: 3 weeks after treatment, rating 0-100 (100=death), Table 2
Description: as §1, §2, §3

[3] = tested on: Triticum aestivum variety “Kanzler”; experiment: Pre-emergence test, selectivity; conditions: 3 weeks after treatment, rating 0-100 (100=death), Table 2
Description: as §1, §2, §3

Galium aparine [4] = experiment: Post-emergence test, weed control; conditions: 2–4 weeks after treatment, rating 0-100 (100=death), Table 5
Description: (§4) These acetone solutions are diluted with water and the resulting formulations applied at dosage levels equivalent of about 0.030 to 0.240 kg per hectare of test compound per pot. After spraying the plants are placed an greenhouse benches and are cared for in the usual manner, commensurate with conventional greenhouse practices. From 2 to 4 weeks after treatment, the seedling plants are examined and rated according to the rating system provided above. A rating 0 indicates growth as untreated control, a rating 100 indicates death.

Setaria viridis [5] = experiment: Post-emergence test, weed control; conditions: 2–4 weeks after treatment, rating 0-100 (100=death), Table 5
Description: as §4

VIOAR = experiment: Post-emergence test, weed control; conditions: 2–4 weeks after treatment, rating 0-100 (100=death), Table 5
Description: as §4

Polygonum convolvulus [6] = experiment: Post-emergence test, weed control; conditions: 2–4 weeks after treatment, rating 0-100 (100=death), Table 5
Description: as §4

Apera spica-venti = experiment: Pre-emergence test, weed control; conditions: 3 weeks after treatment, rating 0-100 (100=death), Table 1
Description: as §1, §2
(§5) In these tests untreated sown soil is used as control. The herbicidal effects of the test compounds are assessed visually three weeks after spraying the soil and are recorded an a 0 to 100 scale. A rating 0 indicates growth as untreated control, a rating 100 indicates death. An increase of 10 unit an the linear scale approximates to a 10% increase in the level of effect. The results of the assessment are set out in Tables 1 to 4.

Matricaria inodora = experiment: Pre-emergence test, weed control; conditions: 3 weeks after treatment, rating 0-100 (100=death), Table 1
Description: as §1, §2, §5

Poa annua = experiment: Pre-emergence test, weed control; conditions: 3 weeks after treatment, rating 0-100 (100=death), Table 1
Description: as §1, §2, §5

Lolium perenne = experiment: Pre-emergence test, weed control; conditions: 3 weeks after treatment, rating 0-100 (100=death), Table 1
Description: as §1, §2, §5

Galium aparine [7] = experiment: Pre-emergence test, weed control; conditions: 3 weeks after treatment, rating 0-100 (100=death), Table 1
Description: as §1, §2, §5

Setaria viridis [8] = experiment: Pre-emergence test, weed control; conditions: 3 weeks after treatment, rating 0-100 (100=death), Table 1
Description: as §1, §2, §5

Alopecurus myosuroides = experiment: Pre-emergence test, weed control; conditions: 3 weeks after treatment, rating 0-100 (100=death), Table 1
Description: as §1, §2, §5

Veronica persica = experiment: Pre-emergence test, weed control; conditions: 3 weeks after treatment, rating 0-100 (100=death), Table 1
Description: as §1, §2, §5

Polygonum convolvulus [9] = experiment: Pre-emergence test, weed control; conditions: 3 weeks after treatment, rating 0-100 (100=death), Table 1
Description: as §1, §2, §5

Stellaria media = experiment: Pre-emergence test, weed control; conditions: 3 weeks after treatment, rating 0-100 (100=death), Table 1
Description: as §1, §2, §5

Lamium purpureum = experiment: Pre-emergence test, weed control; conditions: 3 weeks after treatment, rating 0-100 (100=death), Table 1
Description: as §1, §2, §5

Cc1nc(-c2ccc(C(F)(F)F)cc2)nc(Oc2cccc(C(F)(F)F)c2)c1C [REF-2]
HORVW rating (Selectivity) (HORVW; 0.030 kg/ha): 10 | HORVW rating (Selectivity) (HORVW; 0.060 kg/ha): 10 | HORVW rating (Selectivity) (HORVW; 0.120 kg/ha): 20 | HORVW rating (Selectivity) (HORVW; 0.240 kg/ha): 30 | TRZAWM rating (Selectivity) ([1]; 0.030 kg/ha): 1 | TRZAWM rating (Selectivity) ([1]; 0.060 kg/ha): 1 | TRZAWM rating (Selectivity) ([1]; 0.120 kg/ha): 2 | TRZAWM rating (Selectivity) ([1]; 0.240 kg/ha): 5 | HORVWM rating (Selectivity) ([2]; 0.030 kg/ha): 3 | HORVWM rating (Selectivity) ([2]; 0.060 kg/ha): 5 | HORVWM rating (Selectivity) ([2]; 0.120 kg/ha): 18 | HORVWM rating (Selectivity) ([2]; 0.240 kg/ha): 25 | TRZAWK rating (Selectivity) ([3]; 0.030 kg/ha): 1 | TRZAWK rating (Selectivity) ([3]; 0.060 kg/ha): 1 | TRZAWK rating (Selectivity) ([3]; 0.120 kg/ha): 1 | TRZAWK rating (Selectivity) ([3]; 0.240 kg/ha): 5 | GALAP weed control rating (Galium aparine [4]; 0.030 kg/ha): 50 | GALAP weed control rating (Galium aparine [4]; 0.060 kg/ha): 80 | GALAP weed control rating (Galium aparine [4]; 0.120 kg/ha): 85 | GALAP weed control rating (Galium aparine [4]; 0.240 kg/ha): 85 | SETVI weed control rating (Setaria viridis [5]; 0.030 kg/ha): 30 | SETVI weed control rating (Setaria viridis [5]; 0.060 kg/ha): 55 | SETVI weed control rating (Setaria viridis [5]; 0.120 kg/ha): 96 | SETVI weed control rating (Setaria viridis [5]; 0.240 kg/ha): 100 | VIOAR weed control rating (VIOAR; 0.030 kg/ha): 75 | VIOAR weed control rating (VIOAR; 0.060 kg/ha): 90 | VIOAR weed control rating (VIOAR; 0.120 kg/ha): 90 | VIOAR weed control rating (VIOAR; 0.240 kg/ha): 95 | POLCO weed control rating (Polygonum convolvulus [6]; 0.060 kg/ha): 0 | POLCO weed control rating (Polygonum convolvulus [6]; 0.120 kg/ha): 25 | POLCO weed control rating (Polygonum convolvulus [6]; 0.240 kg/ha): 40 | APESV weed control rating (Apera spica-venti; 0.015 kg/ha): 80 | APESV weed control rating (Apera spica-venti; 0.030 kg/ha): 85 | APESV weed control rating (Apera spica-venti; 0.060 kg/ha): 98 | APESV weed control rating (Apera spica-venti; 0.120 kg/ha): 100 | APESV weed control rating (Apera spica-venti; 0.240 kg/ha): 100 | MATIN weed control rating (Matricaria inodora; 0.015 kg/ha): 95 | MATIN weed control rating (Matricaria inodora; 0.030 kg/ha): 98 | MATIN weed control rating (Matricaria inodora; 0.060 kg/ha): 98 | MATIN weed control rating (Matricaria inodora; 0.120 kg/ha): 99 | MATIN weed control rating (Matricaria inodora; 0.240 kg/ha): 99 | POAAN weed control rating (Poa annua; 0.015 kg/ha): 65 | POAAN weed control rating (Poa annua; 0.030 kg/ha): 95 | POAAN weed control rating (Poa annua; 0.060 kg/ha): 97 | POAAN weed control rating (Poa annua; 0.120 kg/ha): 100 | POAAN weed control rating (Poa annua; 0.240 kg/ha): 100 | LOLPE weed control rating (Lolium perenne; 0.015 kg/ha): 5 | LOLPE weed control rating (Lolium perenne; 0.030 kg/ha): 30 | LOLPE weed control rating (Lolium perenne; 0.060 kg/ha): 60 | LOLPE weed control rating (Lolium perenne; 0.120 kg/ha): 93 | LOLPE weed control rating (Lolium perenne; 0.240 kg/ha): 97 | GALAP weed control rating (Galium aparine [7]; 0.015 kg/ha): 0 | GALAP weed control rating (Galium aparine [7]; 0.030 kg/ha): 0 | GALAP weed control rating (Galium aparine [7]; 0.060 kg/ha): 3 | GALAP weed control rating (Galium aparine [7]; 0.120 kg/ha): 5 | GALAP weed control rating (Galium aparine [7]; 0.240 kg/ha): 50 | SETVI weed control rating (Setaria viridis [8]; 0.015 kg/ha): 65 | SETVI weed control rating (Setaria viridis [8]; 0.060 kg/ha): 97 | SETVI weed control rating (Setaria viridis [8]; 0.120 kg/ha): 100 | SETVI weed control rating (Setaria viridis [8]; 0.240 kg/ha): 100 | ALOMY weed control rating (Alopecurus myosuroides; 0.015 kg/ha): 0 | ALOMY weed control rating (Alopecurus myosuroides; 0.030 kg/ha): 5 | ALOMY weed control rating (Alopecurus myosuroides; 0.060 kg/ha): 15 | ALOMY weed control rating (Alopecurus myosuroides; 0.120 kg/ha): 65 | ALOMY weed control rating (Alopecurus myosuroides; 0.240 kg/ha): 70 | VERPE weed control rating (Veronica persica; 0.015 kg/ha): 25 | VERPE weed control rating (Veronica persica; 0.030 kg/ha): 99 | VERPE weed control rating (Veronica persica; 0.060 kg/ha): 100 | VERPE weed control rating (Veronica persica; 0.120 kg/ha): 100 | VERPE weed control rating (Veronica persica; 0.240 kg/ha): 100 | POLCO weed control rating (Polygonum convolvulus [9]; 0.015 kg/ha): 0 | POLCO weed control rating (Polygonum convolvulus [9]; 0.030 kg/ha): 0 | POLCO weed control rating (Polygonum convolvulus [9]; 0.060 kg/ha): 0 | POLCO weed control rating (Polygonum convolvulus [9]; 0.120 kg/ha): 30 | POLCO weed control rating (Polygonum convolvulus [9]; 0.240 kg/ha): 80 | STEME weed control rating (Stellaria media; 0.015 kg/ha): 0 | STEME weed control rating (Stellaria media; 0.060 kg/ha): 20 | STEME weed control rating (Stellaria media; 0.120 kg/ha): 97 | STEME weed control rating (Stellaria media; 0.240 kg/ha): 100 | LAMPU weed control rating (Lamium purpureum; 0.030 kg/ha): 40 | LAMPU weed control rating (Lamium purpureum; 0.060 kg/ha): 75 | LAMPU weed control rating (Lamium purpureum; 0.120 kg/ha): 98 | LAMPU weed control rating (Lamium purpureum; 0.240 kg/ha): 100
